Test results as given in patent publication US11185077B2, “Attractants for rodents” (priority 2016, dated 2021).

Tested on: house mice, Mus musculus
Experiment: Laboratory T-tube bioassay: behavioral responses of mice (first choice, time spent)
Type: in vivo
Conditions: female mice
Source text: A laboratory experimental apparatus was constructed to test the behavioral responses of mice to the compositions described herein. The experimental design is depicted in FIG. 4 and includes three clear Plexiglas chambers: release chamber (1: 40 cm×20 cm×30 cm for placement of a mouse at the onset of a bioassay), and response chambers (3a and 3b: each 60 cm×30 cm×40 cm) interconnected by a Pyrex glass T-tube (2; stem: 65 cm long, side arms: 45 cm long, all 10 cm in diameter). Each response chamber housed a test stimulus in a Petri dish (4a, 4b; 3 cm diam.). For each replicate, a single mouse was deprived of food, but not water, for 4-6 h before being placed into chamber 1, which was illuminated by dim red light to facilitate observations of the mouse's position. The mouse was allowed to enter the stem of the T-tube (2) on its own accord in response to test stimuli, which were randomly assigned to response chamber 3a or 3b.
Both response chambers were fitted with a Petri dish (4a, 4b) containing a Whatman #1 filter paper disk (25 mm diam.) treated with a randomly assigned treatment stimulus or control stimulus. For each bioassay, a single mouse was tested and the following data were recorded: (1) the treatment or control chamber the mouse entered first with all four paws (“first-choice data”); and (2) the position of the mouse at each of 30 30-sec intervals after its first entry into the T-tube. Position data were then used to calculate the proportion of time a mouse spent in the treatment or control chamber (“time-spent data”).
Following each replicate, the chambers and T-tube were cleaned with a Percept® disinfectant detergent (Virox Technologies Inc. Mississaugua ON L5N 5M4, Canada) and wiped with 70% ethanol.
First-choice data and the time spent in a trap box quadrant were analyzed using a χ^2 test with Yates' correction for continuity (α=0.05) and the Student's t-test (α=0.05), respectively.
In Experiment 5, the laboratory experimental design of FIG. 4 was used to evaluate the responses of female mice to synthetic androstenone. For Experiment 5, the treatment stimulus consisted of filter paper treated with 4 μg of synthetic androstenone (see Experiments 1 and 2), and the control stimulus consisted of filter paper treated with the 50 μl of ether without androstenone.
In Experiment 6, the laboratory experimental design of FIG. 4 was used to evaluate the responses of male mice to blends of synthetic progesterone and estrogen. For Experiment 6, the treatment stimulus consisted of filter paper treated with a 4-μg blend of the synthetic hormones progesterone and estrogen formulated in 50 μl of ether at a ratio of 100:1 and a control stimulus which consisted of filter paper treated with 50 μl of ether.
In Experiments 9 to 11, the laboratory experimental design of FIG. 4 was used to evaluate the responses of male mice to synthetic progesterone and estrogen. For the Experiments, the treatment stimulus consisted of filter paper treated with a blend of the synthetic progesterone (50 ng) and estrogen (25 ng) (hereinafter “synthetic hormone blend”) (Experiment 9), progesterone alone (75 ng) (Experiment 10) or estrogen alone (75 ng) (Experiment 11) formulated in 50 μl ether. The control stimulus consisted of filter paper treated with 50 μl of ether for each of Experiments 9 to 11.
Experiment 12 used the laboratory experimental apparatus of FIG. 4 to test choices of female mice between filter paper treated with 75 ng of synthetic testosterone (the treatment stimulus) formulated in 50 μl of ether and control filter paper treated with 50 μl of ether. Experiment 13 was identical to Experiment 12 except that the treatment stimulus consisted of filter paper treated with 75 ng of synthetic androstenone.

[1] = Experiment 12, 75 ng synthetic testosterone
[2] = Experiment 5, 4 μg synthetic androstenone
[3] = Experiment 13, 75 ng synthetic androstenone

SMILES	first entry into baited chamber vs control chamber [1]	preference in time spent for the treated chamber over control [1]	time spent in baited chamber vs control chamber [1]	effect on female mice (Experiment 12, 75 ng synthetic testosterone in 50 μl ether vs ether)	first entry into baited response chamber vs control chamber [2]	time spent in response chamber with stimulus vs control chamber [2]	effect on female mice (Experiment 5, 4 μg synthetic androstenone vs 50 μl ether)	first entry into baited chamber vs control chamber [3]	responses by female mice compared with testosterone [3]	time spent in baited chamber vs control chamber [3]
C[C@]12CC[C@H]3[C@@H](CCC4=CC(=O)CC[C@@]43C)[C@@H]1CC[C@@H]2O [testosterone, (8R,9S,10R,13S,14S,17S)-17-hydroxy-10,13-dimethyl-1,2,6,7,8,9,11,12,14,15,16,17-dodecahydrocyclopenta[a]phenanthren-3-one, reference compound]	significantly more often	over threefold preference	significantly more time	very positive effect						
C[C@]12CCC(=O)C[C@@H]1CC[C@@H]1[C@@H]2CC[C@]2(C)C=CC[C@@H]12 [androstenone, 5α-androst-16-en-3-one]					as often as	significantly more time	positive effect	as often as	much weaker	slightly more time
